Source: patent US8017612B2, “Piperazine compound and use thereof as a HCV polymerase inhibitor” (priority 2006, dated 2011)

Columns and labels:
[1] = target: T1, HCV polymerase (NS5B) type 1b (Hepatitis C virus genotype 1b, UniProt P26663); test: Assay of enzyme (HCV polymerase) inhibitory activity, type 1b enzyme; assay type: biochemical, HCV BK strain (type 1b); conditions: HCV polymerase inhibitory activity (IC50), 1b, type 1b enzyme 0.5 μg/ml, 25° C., 60 min
T1 construct: a region encoding NS5B (J Virol 1991 March, 65(3), 1105-13, 544 amino acids after deletion of 47 amino acids on the C-terminal); 6xHis (C); made in house; host or cells: Escherichia coli
Outline: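 IC50 derived from [3H]UTP incorporation into TCA-insoluble RNA, compared with and without test compound. Reaction (25 °C, 60 min, Tris pH 7.5, 5 mM MgCl2): E. coli-expressed 1b NS5B Δ47 with His tag at 0.5 μg/ml, 5 μg/ml run-off substrate RNA, ATP/GTP/CTP 50 μM, UTP 2 μM.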

[2] = target: T2, HCV polymerase (NS5B) type 1a (Hepatitis C virus genotype 1a, UniProt P26664); test: Assay of enzyme (HCV polymerase) inhibitory activity, type 1a enzyme; assay type: biochemical, HCV type 1a (cloned from the blood of patients); conditions: HCV polymerase inhibitory activity (IC50), 1a, type 1a enzyme 1.5 μg/ml, 25° C., 60 min
T2 construct: made in house; host or cells: Escherichia coli (by the 'similar method' of the 1b enzyme)
Outline: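 Reactions ran 60 min at 25° C in 20 mM Tris-HCl pH 7.5, 5 mM MgCl2, 50 mM NaCl, holding genotype 1a NS5B (1.5 μg/ml, Δ47 C-terminus, 6His), substrate RNA 5 μg/ml, UTP 2 μM with tritiated UTP and other NTPs 50 μM. IC50 derived from incorporated radiolabel in filter-trapped RNA relative to uninhibited reaction.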

Row | Structure (SMILES) | IC50 [1] [nM] | IC50 [2] [nM]
1 | CC(C)c1ccc(S(=O)(=O)N2CCN(c3nc(C(=O)O)cs3)CC2C(=O)NCc2ccc(C(F)(F)F)cc2)cc1 (stereo not shown) [Example 171, 2-[4-(4-isopropyl-benzenesulfonyl)-3-(4-trifluoromethyl-benzylcarbamoyl)-piperazin-1-yl]-thiazole-4-carboxylic acid] | > 1000 | > 1000
2 | CC(C)c1ccc(CNC(=O)[C@H]2CN(C(=O)Cc3ccccc3)CCN2S(=O)(=O)c2ccc(C(F)(F)F)cc2)cc1 [Example 172, (R)-4-phenylacetyl-1-(4-trifluoromethyl-benzenesulfonyl)-piperazine-2-carboxylic acid 4-isopropyl-benzylamide] | 100 to 1000 | > 1000
3 | COC(=O)CCC(=O)N1CCN(S(=O)(=O)c2ccc(C(F)(F)F)cc2)[C@@H](C(=O)NCc2ccc(C(C)C)cc2)C1 [Example 173, 4-[(R)-3-(4-isopropyl-benzylcarbamoyl)-4-(4-trifluoromethyl-benzenesulfonyl)-piperazin-1-yl]-4-oxo-butyric acid methyl ester] | 100 to 1000 | 100 to 1000
4 | COC(=O)CCCC(=O)N1CCN(S(=O)(=O)c2ccc(C(F)(F)F)cc2)[C@@H](C(=O)NCc2ccc(C(C)C)cc2)C1 [Example 174, 5-[(R)-3-(4-isopropyl-benzylcarbamoyl)-4-(4-trifluoromethyl-benzenesulfonyl)-piperazin-1-yl]-5-oxo-pentanoic acid methyl ester] | 100 to 1000 | 100 to 1000
5 | CC(C)c1ccc(CNC(=O)[C@H]2CN(C(=O)Cc3cccnc3)CCN2S(=O)(=O)c2ccc(C(F)(F)F)cc2)cc1 [Example 175, (R)-4-(2-pyridin-3-yl-acetyl)-1-(4-trifluoromethyl-benzenesulfonyl)-piperazine-2-carboxylic acid 4-isopropyl-benzylamide] | 100 to 1000 | 100 to 1000
6 | CC(=O)N1CCN(S(=O)(=O)c2ccc(C(F)(F)F)cc2)[C@@H](C(=O)NCc2ccc(C(C)C)cc2)C1 [Example 176, (R)-4-acetyl-1-(4-trifluoromethyl-benzenesulfonyl)-piperazine-2-carboxylic acid 4-isopropyl-benzylamide] | 100 to 1000 | 100 to 1000
7 | CCNC(=O)N1CCN(S(=O)(=O)c2ccc(C(F)(F)F)cc2)[C@@H](C(=O)NCc2ccc(C(C)C)cc2)C1 [Example 177, (R)-4-(4-trifluoromethyl-benzenesulfonyl)-piperazine-1,3-dicarboxylic acid 1-ethylamide 3-(4-isopropyl-benzylamide)] | 100 to 1000 | 100 to 1000
8 | CC(C)c1ccc(CNC(=O)[C@H]2CN(C(=O)Nc3ccccc3)CCN2S(=O)(=O)c2ccc(C(F)(F)F)cc2)cc1 [Example 178, (R)-4-(4-trifluoromethyl-benzenesulfonyl)-piperazine-1,3-dicarboxylic acid 3-(4-isopropyl-benzylamide) 1-phenylamide] | 100 to 1000 | 100 to 1000
9 | CC(C)c1ccc(CNC(=O)[C@H]2CN(C3=NCCS3)CCN2S(=O)(=O)c2ccc(C(F)(F)F)cc2)cc1 [Example 179, (R)-4-(4,5-dihydro-thiazol-2-yl)-1-(4-trifluoromethyl-benzenesulfonyl)-piperazine-2-carboxylic acid 4-isopropyl-benzylamide] | 100 to 1000 | 100 to 1000
10 | CC(C)c1ccc(CNC(=O)[C@H]2CN(C(=O)CN3CCOCC3)CCN2S(=O)(=O)c2ccc(C(F)(F)F)cc2)cc1 [Example 180, (R)-4-(2-morpholin-4-yl-acetyl)-1-(4-trifluoromethyl-benzenesulfonyl)-piperazine-2-carboxylic acid 4-isopropyl-benzylamide] | 100 to 1000 | > 1000
11 | CC(=O)N1CCN(S(=O)(=O)c2ccc(C(C)C)cc2)C(C(=O)NCc2ccc(N(C)CCO)cc2)C1 (stereo not shown) [Example 181, 4-acetyl-1-(4-isopropyl-benzenesulfonyl)-piperazine-2-carboxylic acid 4-[(2-hydroxy-ethyl)-methyl-amino]-benzylamide] | > 1000 | > 1000
